The source of these data is ChEMBL document CHEMBL4725225, “Exploratory studies on CA-15L, an anti-HIV active HIV-1 capsid fragment” (Bioorg Med Chem, 2020).

Data set [1] can be described thus: Cytotoxicity against Human immunodeficiency virus 1 NLAD8 infected in human PM1 cells expressing CCR5 assessed as cell viability measured after 5 days by MTT assay. In kind it is cell-based. Conditions: PM1 cells expressing CCR5 infected with HIV-1 NLAD8, time 5 day. On the technique in general: Tetrazolium dyes change colour on reduction, which living cells bring about.

Data set [2] in a line: Cytotoxicity against Human immunodeficiency virus 1 NL4-3 infected in human MT4 cells assessed as reduction in cell viability measured after 5 days by MTT assay. The settings on record: MT4 cells infected with HIV-1 NL4-3, time 5 day. In kind it is cell-based.
The subject of data set [3] is Human immunodeficiency virus 1. The data set is described as follows: Antiviral activity against Human immunodeficiency virus 1 NL4-3 infected in human MT4 cells assessed as reduction in virus-induced cytopathogenicity measured after 5 days by MTT assay. Type of data set: functional, organism-based. Conditions: Human immunodeficiency virus 1, NL4-3, MT4, 120 h. In general terms: Protection from cytopathic effect is a common read-out in antiviral testing.

Data set [4] deals with Human immunodeficiency virus 1. In words: Antiviral activity against Human immunodeficiency virus 1 NLAD-8 infected in human PM1 cells expressing CCR5 assessed as reduction in virus-induced cytopathogenicity measured after 5 days by MTT assay. In kind it is functional, organism-based. The settings on record: Human immunodeficiency virus 1, NLAD-8, PM1, 120 h.

Structures are written as SMILES.

As to `CC[C@H](C)[C@H](NC(C)=O)C(=O)N[C@H](C(=O)N[C@@H](CCCNC(=N)N)C(=O)N[C@@H](CCSC)C(=O)N[C@@H](Cc1ccc(O)cc1)C(=O)N[C@@H](CO)C(=O)N1CCC[C@H]1C(=O)N[C@H](C(=O)N[C@@H](CO)C(=O)N[C@H](C(=O)N[C@@H](CC(C)C)C(=O)N[C@@H](CC(=O)O)C(=O)N[C@H](C(=O)N[C@@H](CCCNC(=N)N)C(=O)N[C@@H](CCC(N)=O)C(=O)NCC(=O)N[C@@H](CSCC(=O)N[C@@H](CCCNC(=N)N)C(=O)N[C@@H](CCCNC(=N)N)C(=O)N[C@@H](CCCNC(=N)N)C(=O)N[C@@H](CCCNC(=N)N)C(=O)N[C@@H](CCCNC(=N)N)C(=O)N[C@@H](CCCNC(=N)N)C(=O)N[C@@H](CCCNC(=N)N)C(=O)N[C@@H](CCCNC(=N)N)C(N)=O)C(N)=O)[C@@H](C)CC)[C@@H](C)CC)[C@@H](C)O)C(C)C`, the CC50 at 120 h stood at 18 µM in data set [1] and 9.3 µM in data set [2]. Also, the results for the EC50 in data set [3] and in data set [4] were 4.6 µM and 1.2 µM, respectively.
Consider `CC[C@H](C)[C@H](NC(C)=O)C(=O)N[C@H](C(=O)N[C@@H](CCCNC(=N)N)C(=O)N[C@@H](CCSC)C(=O)N[C@@H](Cc1ccc(O)cc1)C(=O)N[C@@H](CO)C(=O)N1CCC[C@H]1C(=O)N[C@H](C(=O)N[C@@H](COP(=O)(O)O)C(=O)N[C@H](C(=O)N[C@@H](CC(C)C)C(=O)N[C@@H](CC(=O)O)C(=O)N[C@H](C(=O)N[C@@H](CCCNC(=N)N)C(=O)N[C@@H](CCC(N)=O)C(=O)NCC(=O)N[C@@H](CSCC(=O)N[C@@H](CCCNC(=N)N)C(=O)N[C@@H](CCCNC(=N)N)C(=O)N[C@@H](CCCNC(=N)N)C(=O)N[C@@H](CCCNC(=N)N)C(=O)N[C@@H](CCCNC(=N)N)C(=O)N[C@@H](CCCNC(=N)N)C(=O)N[C@@H](CCCNC(=N)N)C(=O)N[C@@H](CCCNC(=N)N)C(N)=O)C(N)=O)[C@@H](C)CC)[C@@H](C)CC)[C@@H](C)O)C(C)C`, for which the CC50 at 120 h is above 50 µM in data set [1] and 44 µM in data set [2]. For the same compound, the EC50 is above 44 µM in data set [3] and above 50 µM in data set [4].
Regarding `CC[C@H](C)[C@H](NC(C)=O)C(=O)N[C@H](C(=O)N[C@@H](CCCNC(=N)N)C(=O)N[C@@H](CCSC)C(=O)N[C@@H](Cc1ccc(O)cc1)C(=O)N[C@@H](CO)C(=O)N1CCC[C@H]1C(=O)N[C@H](C(=O)N[C@@H](CCC(=O)O)C(=O)N[C@H](C(=O)N[C@@H](CC(C)C)C(=O)N[C@@H](CC(=O)O)C(=O)N[C@H](C(=O)N[C@@H](CCCNC(=N)N)C(=O)N[C@@H](CCC(N)=O)C(=O)NCC(=O)N[C@@H](CSCC(=O)N[C@@H](CCCNC(=N)N)C(=O)N[C@@H](CCCNC(=N)N)C(=O)N[C@@H](CCCNC(=N)N)C(=O)N[C@@H](CCCNC(=N)N)C(=O)N[C@@H](CCCNC(=N)N)C(=O)N[C@@H](CCCNC(=N)N)C(=O)N[C@@H](CCCNC(=N)N)C(=O)N[C@@H](CCCNC(=N)N)C(N)=O)C(N)=O)[C@@H](C)CC)[C@@H](C)CC)[C@@H](C)O)C(C)C`, the values for the CC50 at 120 h in data set [1] and in data set [2] were above 50 µM and 31 µM, respectively. Moreover, the results for the EC50 in data set [3] and in data set [4] were above 31 µM and above 50 µM, respectively.
With `CC[C@H](C)[C@H](NC(C)=O)C(=O)N[C@H](C(=O)N[C@@H](CCCNC(=N)N)C(=O)N[C@@H](CCSC)C(=O)N[C@@H](Cc1ccc(O)cc1)C(=O)N[C@@H](CO)C(=O)N1CCC[C@H]1C(=O)N[C@H](C(=O)N[C@@H](CC(F)(F)P(=O)(O)O)C(=O)N[C@H](C(=O)N[C@@H](CC(C)C)C(=O)N[C@@H](CC(=O)O)C(=O)N[C@H](C(=O)N[C@@H](CCCNC(=N)N)C(=O)N[C@@H](CCC(N)=O)C(=O)NCC(=O)N[C@@H](CSCC(=O)N[C@@H](CCCNC(=N)N)C(=O)N[C@@H](CCCNC(=N)N)C(=O)N[C@@H](CCCNC(=N)N)C(=O)N[C@@H](CCCNC(=N)N)C(=O)N[C@@H](CCCNC(=N)N)C(=O)N[C@@H](CCCNC(=N)N)C(=O)N[C@@H](CCCNC(=N)N)C(=O)N[C@@H](CCCNC(=N)N)C(N)=O)C(N)=O)[C@@H](C)CC)[C@@H](C)CC)[C@@H](C)O)C(C)C`, the CC50 at 120 h in data set [1] and in data set [2] was above 50 µM each time. Besides, the EC50 in data set [3] and in data set [4] was above 50 µM each time.
On to `c1cc(CN2CCCNCCNCCCNCC2)ccc1CN1CCCNCCNCCCNCC1` [PLERIXAFOR], for which the CC50 at 120 h in data set [1] and in data set [2] was above 50 µM throughout. In addition, the values for the EC50 in data set [3] and in data set [4] were 0.035 µM and above 50 µM, respectively.
With `COC[C@@H](c1ccc(C(F)(F)F)cc1)N1CCN(C2(C)CCN(C(=O)c3c(C)ncnc3C)CC2)C[C@@H]1C` [VICRIVIROC], the CC50 at 120 h in data set [1] and in data set [2] was above 5 µM in each case. For the same compound, the EC50 in data set [3] is above 5 µM; in data set [4], 0.014 µM.
On to `Cc1cn([C@H]2C[C@H](N=[N+]=[N-])[C@@H](CO)O2)c(=O)[nH]c1=O` [ZIDOVUDINE], for which the CC50 at 120 h in data set [1] is above 100 µM; in data set [2], above 50 µM. Further, the EC50 was 0.043 µM in data set [3] and 0.3 µM in data set [4].

One may read the CC50 as the concentration that lowers cell viability or growth by half. By EC50 is commonly meant the concentration that produces a half-maximal response.
